Measured values from patent US20260000620A1, “ORAL DOSAGE FORMS” (priority 2022, published 2026).
Positions of bridges follow the written chain, without caps; N, C: chain ends. Residues, ends and D or L forms follow the SMILES beside them.

What was measured:
[1] = dog, in vivo, iv
Description: (§1) A dog PK study with terlipressin capsules was carried out essentially as described in Example 2. The key differences are as follows:
(§2) Test article administration: Animals were fasted for at least 12 hours prior to dosing and through the first 4 hours of blood sample collection (food was returned within 30 minutes following collection of the last blood sample at the 4 hour collection interval).
(§3) Intravenous administration: Animals in Phase 1 (groups 1 and 2) received a single iv of glypressin of 0.04 or 0.2 mg terlipressin base (0.24 or 1.2 mL/animal, respectively). Dosing was performed by 1 minute slow injection via the cephalic vein, using a catheter.
(§4) Blood collection: Blood samples (approximately 3 mL/sample) were collected from the jugular vein in the following time points:
(§5) Blood samples were placed into tubes containing K2EDTA. The samples were centrifuged under refrigerated (2 to 8° C.) conditions within 30 minutes of sample collection and the resulting plasma was separated and split into two approximately equal aliquots. Each plasma sample was placed into pre-chilled tubes that were placed on dry ice until frozen at −60° to −90° C. Bioanalysis was performed for plasma concentrations of both terlipressin and LVP.
(§6) Bioanalysis of plasma samples was performed using a LC-MS/MS method for quantitation of terlipressin and [Lys8]—Vasopressin in Dog Plasma.

in vivo = conditions: beagle, dog, iv
Description: as §1, §2, §3, §4, §5, §6

- increase of both LVP AUCs from 0.04 mg to 0.2 mg [1]: 3.7 fold
- AUC(0-inf) (in vivo; 0.04 mg): 1.77 ng·h/mL
- AUC(0-t) (in vivo; 0.04 mg): 1.82 ng·h/mL
- Cmax (in vivo; 0.04 mg): 12.6 ng/mL
- Tmax (in vivo; 0.04 mg): 4.98 min
- half-life (in vivo; 0.04 mg): 4.44 min
- AUC(0-inf) (in vivo; 0.2 mg): 9.14 ng·h/mL
- AUC(0-t) (in vivo; 0.2 mg): 9.13 ng·h/mL
- Cmax (in vivo; 0.2 mg): 59.1 ng/mL
- Tmax (in vivo; 0.2 mg): 4.02 min
- half-life (in vivo; 0.2 mg): 13.9 min
Compound: NCCCC[C@H](NC(=O)[C@@H]1CCCN1C(=O)[C@@H]1CSSC[C@H](NC(=O)CNC(=O)CNC(=O)CN)C(=O)N[C@@H](Cc2ccc(O)cc2)C(=O)N[C@@H](Cc2ccccc2)C(=O)N[C@@H](CCC(N)=O)C(=O)N[C@@H](CC(N)=O)C(=O)N1)C(=O)NCC(N)=O [terlipressin, triglycyl lysine vasopressin] (H-GGGCYFQNCPKG-NH2; disulfide 4-9)
